Earlier results on four molecules are cited in publication PMC2946453 (Journal of pharmaceutical and biomedical analysis, 2010).

In general, IC50 refers to the concentration at which inhibition is half-maximal. What is called Km is the concentration of substrate that gives half-maximal velocity.

Data set [1] concerns COX-1. The note with it: read-out: IC50 COX-1; bovine aortic coronary endothelial cells.
Data set [2] relates to human COX-2. Particulars: read-out: IC50 COX-2.
Data set [3] concerns COX-2. Particulars: read-out: IC50 COX-2; form of COX not mentioned.
Data set [4] deals with COX-1. The note with it: read-out: IC50 COX-1; form of COX not mentioned.
For data set [5], the target named is T1, ovine COX-1 (Ovis aries, UniProt P05979).
T1 sequence (P05979 25-600): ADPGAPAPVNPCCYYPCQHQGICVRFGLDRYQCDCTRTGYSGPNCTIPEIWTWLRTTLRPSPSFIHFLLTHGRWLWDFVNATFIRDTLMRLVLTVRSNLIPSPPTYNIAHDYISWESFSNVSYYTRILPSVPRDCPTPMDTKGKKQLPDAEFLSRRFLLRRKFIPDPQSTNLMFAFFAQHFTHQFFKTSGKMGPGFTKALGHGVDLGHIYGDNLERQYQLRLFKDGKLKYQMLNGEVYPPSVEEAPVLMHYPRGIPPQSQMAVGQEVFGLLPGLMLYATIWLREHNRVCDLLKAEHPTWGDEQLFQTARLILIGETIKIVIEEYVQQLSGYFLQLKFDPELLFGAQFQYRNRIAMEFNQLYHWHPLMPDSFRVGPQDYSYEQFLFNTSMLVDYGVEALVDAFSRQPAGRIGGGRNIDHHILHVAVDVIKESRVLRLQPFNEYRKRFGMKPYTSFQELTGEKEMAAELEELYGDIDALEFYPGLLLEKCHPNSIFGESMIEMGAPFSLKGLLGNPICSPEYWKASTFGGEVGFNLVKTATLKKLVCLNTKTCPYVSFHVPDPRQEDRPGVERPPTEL
Particulars: read-out: Km ovine COX-1; radiolabeled arachidonic acid.

Where two headings read alike, the source gives them in different places.

Consider `O=C(O)Cc1ccccc1Nc1c(Cl)cccc1Cl` [Diclofenac], for which the concentration for half-maximal inhibition (IC50) in data set [1] was […].
In the case of `COc1ccc2c(c1)c(CC(=O)O)c(C)n2C(=O)c1ccc(Cl)cc1` [Indomethacin], in data set [2], the IC50 is […].
Consider `Oc1ccc(/C=C/c2cc(O)cc(O)c2)cc1` [Resveratrol], for which the figures for the IC50 in data set [3] and in data set [4] were 990 ± 400 nM and 830 ± 440 nM, respectively.
As to `CCCCC/C=C\C/C=C\C/C=C\C/C=C\CCCC(=O)O` [arachidonic acid], the Michaelis-Menten constant (Km) in data set [5] was 3.7 ± 0.5 µM.
